Data as given in the supplement of paper PMC10307832.

What was measured:
Assay in all cases: relative viability (nuclei count vs DMSO), 5 days (fraction); higher = more cells survive
AGI-6780 + Vorinostat = compound: O=C(Nc1cccc(C(F)(F)F)c1)Nc1cc(S(=O)(=O)NC2CC2)ccc1-c1ccsc1 [AGI-6780] + O=C(CCCCCCC(=O)Nc1ccccc1)NO [Vorinostat] (partner 1 µM)
In short: (§1)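 Relative viability equals treated-well nuclei counts divided by vehicle-well nuclei counts. Counts came from 4× images of lung cancer cell lines grown in 1536-well plates for 5 days after pin-tool dosing on the day after seeding. Dosing used one drug alone or a fixed anchor-drug dose plus five library-drug doses (not always all listed) in √10 steps, and values are medians of duplicate plates.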

AGI-6780 + Dasatinib = compound: O=C(Nc1cccc(C(F)(F)F)c1)Nc1cc(S(=O)(=O)NC2CC2)ccc1-c1ccsc1 [AGI-6780] + Cc1nc(Nc2ncc(C(=O)Nc3c(C)cccc3Cl)s2)cc(N2CCN(CCO)CC2)n1 [Dasatinib] (partner 0.075 µM)
In short: as §1

AGI-6780 + Pemetrexed = compound: O=C(Nc1cccc(C(F)(F)F)c1)Nc1cc(S(=O)(=O)NC2CC2)ccc1-c1ccsc1 [AGI-6780] + Nc1nc2[nH]cc(CCc3ccc(C(=O)N[C@@H](CCC(=O)O)C(=O)O)cc3)c2c(=O)[nH]1 [Pemetrexed] (partner 0.2 µM)
In short: as §1

AGI-6780 + Palbociclib = compound: O=C(Nc1cccc(C(F)(F)F)c1)Nc1cc(S(=O)(=O)NC2CC2)ccc1-c1ccsc1 [AGI-6780] + CC(=O)c1c(C)c2cnc(Nc3ccc(N4CCNCC4)cn3)nc2n(C2CCCC2)c1=O [Palbociclib] (partner 0.5 µM)
In short: as §1

Cell Line	relative viability (AGI-6780 + Vorinostat; first compound 0.08 µM)	relative viability (AGI-6780 + Vorinostat; first compound 0.253 µM)	relative viability (AGI-6780 + Vorinostat; first compound 0.8 µM)	relative viability (AGI-6780 + Vorinostat; first compound 2.53 µM)	relative viability (AGI-6780 + Vorinostat; first compound 8 µM)	relative viability (AGI-6780 + Dasatinib; first compound 0.08 µM)	relative viability (AGI-6780 + Dasatinib; first compound 0.253 µM)	relative viability (AGI-6780 + Dasatinib; first compound 0.8 µM)	relative viability (AGI-6780 + Dasatinib; first compound 2.53 µM)	relative viability (AGI-6780 + Dasatinib; first compound 8 µM)	relative viability (AGI-6780 + Pemetrexed; first compound 0.08 µM)	relative viability (AGI-6780 + Pemetrexed; first compound 0.253 µM)	relative viability (AGI-6780 + Pemetrexed; first compound 0.8 µM)	relative viability (AGI-6780 + Pemetrexed; first compound 2.53 µM)	relative viability (AGI-6780 + Pemetrexed; first compound 8 µM)	relative viability (AGI-6780 + Palbociclib; first compound 0.08 µM)	relative viability (AGI-6780 + Palbociclib; first compound 0.253 µM)	relative viability (AGI-6780 + Palbociclib; first compound 0.8 µM)	relative viability (AGI-6780 + Palbociclib; first compound 2.53 µM)	relative viability (AGI-6780 + Palbociclib; first compound 8 µM)
201T	0.991	0.98	1.06	0.951	1.04	0.613	0.53	0.564	0.476	0.6	0.34	0.325	0.345	0.31	0.291	0.359	0.367	0.353	0.329	0.344
A-427		0.82	0.857	0.816	0.836	0.696	0.66	0.759	0.582	0.668		0.932	1.01	0.929	0.971		0.504	0.548	0.462	0.491
ABC-1		1.52	1.38	0.842	1.03	0.589	0.57	0.632	0.553	0.712							0.666	0.846	0.608	0.905
BEN	0.62	0.539	0.692		0.629	0.219	0.348	0.291	0.3	0.377	0.644	0.876	0.718		0.965	0.488	0.429	0.457		0.502
CAL-12T	0.884	0.729	1.16	0.662	0.732	0.549	0.501	0.676	0.4	0.487	1.25	1.27	1.35	1.25	1.26	0.407	0.465	0.651	0.46	0.367
COR-L23	0.348	0.425	0.429	0.554	0.453	0.548	0.42	0.529	0.496	0.488	0.213	0.215	0.206	0.207	0.188	0.322	0.257	0.298	0.277	0.329
COR-L 105	0.908	1.34	0.975	0.97	0.841	0.345	0.349	0.397	0.369	0.378	1.26	0.965	1.17	0.923	1.08	0.395	0.301	0.417	0.371	0.37
ChaGo-K-1	0.727	0.787	0.745	0.63	0.825	0.612	0.543	0.576	0.524	0.642	0.26	0.267	0.261	0.255	0.25	0.951	0.968	0.921	0.921	0.898
EKVX	0.827	0.686	0.752	0.721	0.614	0.583	0.467	0.598	0.6	0.619	0.381	0.403	0.342	0.388	0.4	0.411	0.368	0.368	0.352	0.406
EMC-BAC-2		0.453	0.809	0.4	0.421	0.313	0.338	0.311	0.273	0.334		0.434	0.43	0.55	0.44		0.535	0.487	0.437	0.543
EPLC-272H	0.351	0.401	0.318	0.554	0.289		0.423	0.292	0.285	0.365	0.302	0.4	0.27	0.398	0.272	0.318	0.356	0.318	0.337	0.329
H3255	0.541	0.865	0.893		0.867	0.349	0.374	0.456	0.353	0.333	0.554	0.549	0.636	0.629	0.581	0.292	0.304	0.307	0.315	0.31
HARA	0.431	0.575	0.499	0.528	0.616	0.229	0.278	0.259	0.179	0.233	0.248	0.266	0.199	0.271	0.239	0.235	0.271	0.167	0.257	0.278
HCC-15	0.917	0.88	0.875	0.832	0.828	0.732	0.636	0.736	0.437	0.621	0.227	0.245	0.204	0.215	0.207	0.787	0.649	0.689	0.718	0.728
HCC-44	1.16	1.03	1.13	1.08	1.11						0.657	0.681	0.601	0.631	0.616	0.969	0.978	0.959	0.99	0.966
HCC-78	0.527	0.411	0.577	0.432	0.389		0.388	0.433	0.364	0.351	0.957	0.859	0.908	0.85	0.927	0.457	0.395	0.443	0.42	0.458
HCC-366	0.355	0.315	0.346	0.285	0.446	0.678	0.608	0.684	0.245	0.556	0.177	0.174	0.157	0.259	0.168	0.369	0.388	0.41	0.29	0.405
HCC-827	0.983	0.849	0.896	0.802	1	0.363	0.23	0.337	0.273	0.293	0.237	0.257	0.264	0.256	0.27	0.485	0.488	0.478	0.466	0.481

Cell Line	relative viability (AGI-6780 + Vorinostat; first compound 0.08 µM)	relative viability (AGI-6780 + Vorinostat; first compound 0.253 µM)	relative viability (AGI-6780 + Vorinostat; first compound 0.8 µM)	relative viability (AGI-6780 + Vorinostat; first compound 2.53 µM)	relative viability (AGI-6780 + Vorinostat; first compound 8 µM)	relative viability (AGI-6780 + Dasatinib; first compound 0.08 µM)	relative viability (AGI-6780 + Dasatinib; first compound 0.253 µM)	relative viability (AGI-6780 + Dasatinib; first compound 0.8 µM)	relative viability (AGI-6780 + Dasatinib; first compound 2.53 µM)	relative viability (AGI-6780 + Dasatinib; first compound 8 µM)	relative viability (AGI-6780 + Pemetrexed; first compound 0.08 µM)	relative viability (AGI-6780 + Pemetrexed; first compound 0.253 µM)	relative viability (AGI-6780 + Pemetrexed; first compound 0.8 µM)	relative viability (AGI-6780 + Pemetrexed; first compound 2.53 µM)	relative viability (AGI-6780 + Pemetrexed; first compound 8 µM)	relative viability (AGI-6780 + Palbociclib; first compound 0.08 µM)	relative viability (AGI-6780 + Palbociclib; first compound 0.253 µM)	relative viability (AGI-6780 + Palbociclib; first compound 0.8 µM)	relative viability (AGI-6780 + Palbociclib; first compound 2.53 µM)	relative viability (AGI-6780 + Palbociclib; first compound 8 µM)
HOP-62	0.61	0.833	0.655	0.617	0.813	0.713	0.642	0.633	0.634	0.63	0.336	0.303	0.378	0.346	0.385	0.375	0.47	0.516	0.467	0.543
IA-LM		0.857	1.06	1.04	0.778															
LC-2-ad	0.754	0.72	0.776	0.661	0.726	0.604	0.573	0.677	0.482	0.515	0.278	0.254	0.255	0.253	0.284	0.536	0.525	0.524	0.526	0.463
LCLC-97TM1	0.739	0.886	0.785	0.572	0.598	0.881	0.887	0.868	0.654	0.817	0.173	0.157	0.192	0.156	0.192	0.197	0.223	0.235	0.212	0.207
LCLC-103H	0.746	0.861	0.759	0.576	0.781	0.462	0.565	0.51	0.318	0.503	0.455	0.421	0.477	0.51	0.473	0.487	0.476	0.526	0.445	0.463
LK-2	0.334	0.286	0.347	0.259	0.567	0.242	0.298	0.286		0.315	0.228	0.359	0.28		0.366	0.671	0.643	0.823		0.679
LOU-NH91	0.954	0.92	0.953	0.926	0.913	0.533	0.516	0.553	0.531	0.558	0.402	0.395	0.382	0.389	0.429	0.529	0.528	0.521	0.515	0.55
LU99A	0.568	0.461	0.502	0.335	0.466	0.52	0.58	0.689	0.401	0.629	0.193	0.162	0.196	0.195	0.163	0.417	0.435	0.494	0.334	0.452
LXF-289	0.858	0.788	0.736	0.843	0.778	0.228	0.213	0.192	0.155	0.204	0.912	0.763	0.964	1.04	0.919	0.606	0.65	0.586	0.586	0.6
NCI-H23	0.61	0.74	0.735	0.614	0.508	0.922	0.701	0.752	0.378	0.735	0.568	0.733	0.758	0.787	0.799	0.437	0.528	0.457	0.394	0.541
NCI-H322M		0.956	1.03	0.855	0.855	0.253	0.259	0.242	0.237	0.261		0.669	0.622	0.636	0.585		0.516	0.446	0.434	0.499
NCI-H358	1.07	0.616	0.709	0.602	0.675	0.184	0.175	0.17	0.151	0.197	0.145	0.182	0.148	0.173	0.166	0.129	0.131	0.119	0.138	0.154
NCI-H441	0.748	0.711	0.853	0.547	0.676	0.669	0.639	0.597	0.548	0.472	0.288	0.241	0.236	0.25	0.248	0.248	0.259	0.232	0.195	0.263
NCI-H596	0.519	0.533	0.602	0.502	0.642	0.582	0.583	0.624		0.665	0.456	0.492	0.472	0.469	0.479					
NCI-H727	1.16	1.01	1.15	1.13	1.16	0.35	0.297	0.386	0.314	0.398						0.669	0.671	0.605	0.56	0.645
NCI-H1563						0.51	0.51	0.459	0.459	0.459	0.712	0.822	0.748	0.655	0.518					
NCI-H1648	0.377	0.689	0.566	0.423	0.419						0.655	0.884	0.864	0.841	0.779	0.242	0.232	0.335	0.26	0.25
NCI-H1792							0.859	0.663	0.719	0.728	0.993	0.842	0.79		0.844		0.574	0.668	0.66	0.615
